Paper PMC11019538, “Biophysics-Guided Lead Discovery of HBV Capsid Assembly Modifiers” (ACS Infectious Diseases, 2024)
Read-outs that look alike come from different tables or passages of the source.

Assays:
[1] = MTT cytotoxicity, CEM cells; assay type: cell-based, human; details: human, T lymphoblast CEM-CCRF (CEM) cells
Procedure: (§1) Human peripheral blood mononuclear (PBM), T lymphoblast CEM-CCRF (herein referred to as CEM cells), African green monkey kidney (Vero), or human liver carcinoma (HepG2) cells were tested via MTT assay using the CellTiter 96 Non-Radioactive Cell Proliferation (Promega) kit as previously described.[63]

[2] = MTT cytotoxicity, Vero cells; assay type: cell-based, African green monkey; details: African green monkey, Vero cells (kidney)
Procedure: as §1

[3] = MTT cytotoxicity, HepG2 cells; assay type: cell-based, human; details: human, HepG2 cells (liver carcinoma)
Procedure: as §1

[4] = MTT cytotoxicity, PBM cells; assay type: cell-based, human; details: human, peripheral blood mononuclear (PBM) cells
Procedure: as §1

Cp149 = biological target: T1, Cp149 (Hepatitis B virus genotype D subtype adw, UniProt P03147); test: Tryptophan fluorescence titration; assay type: binding; details: for tryptophan fluorescence quenching: 20 μM Cp149, compound up to 100 μM
T1 construct: The N-terminal domain of Cp (Cp149) is sufficient for forming regular capsids; made in house; host or cells: E. coli BL21(DE3)
Procedure: Each of the compounds was titrated into 100 μL of the protein solution to final concentrations of 0, 5, 10, 20, 50, and 100 μM in a clear bottom 96-well plate. […] Tryptophan fluorescence levels were measured by exciting the samples at 285 nm and measuring the emission at 340 nm with the Varioskan Flash (Thermo Fisher) plate reader. […] Fluorescence quenching was calculated by taking the difference of net fluorescence levels of each concentration and of the 0 μM sample. All the samples were run in triplicate, and the results were averaged. The dissociation constants (KD) were fitted by the one-site-specific binding model of GraphPad.[45]

Cp149 capsid assembly = biological target: T2, Cp149 capsid assembly (Hepatitis B virus genotype D subtype adw, UniProt P03147); test: Transmission electron microscopy of assembled Cp149 products; assay type: biochemical; details: for % abnormal capsids, Trial 1 / % abnormal capsids, Trial 2 / effect on capsid morphology (TEM): 20 μM Cp149, 40 μM compound; for % abnormal capsids, Trial 1 / % abnormal capsids, Trial 2: 500 mM NaCl; for % abnormal capsids, Average: average of two trials
T2 construct: The N-terminal domain of Cp (Cp149) is sufficient for forming regular capsids; made in house; host or cells: E. coli BL21(DE3)
Procedure: The assembled samples of Cp149 were prepared as described in the Size Exclusion Chromatography section. Eight μL of each sample was added onto the 300 mesh Lacey Formvar carbon–copper grids (Ted Pella, Inc.) and allowed to sit for 1.5 min. The grid was then rinsed in 500 mL of deionized water for 10 s twice to rinse off the extra buffer on the grid. After drying, the sample was stained with 8 μL of 2% uranyl acetate for 1 min. After removal and drying of the uranyl acetate solution, the sample was imaged with a Hitachi HT7700 electron microscope at an accelerating voltage of 120 kV, at the IMat Materials Characterization Facility of Georgia Institute of Technology. The images underwent processing using ImageJ software. Initially, to minimize noise, a Gaussian blur filter was applied. These images were then converted into an 8 bit binary format for edge detection. ImageJ identified particles ranging in size from 800 to 2000 pixels. An example of a processed image can be seen in Figure S14. The circularity of each particle was calculated using the formula circularity = 4π × area × perimeter^–2. […] A total of four images, each containing a minimum of 100 capsids, were analyzed to determine the proportion of the abnormal capsids. The entire experiment was duplicated, and the outcomes from both sets were then averaged.

[5] = tested on: HBV DNA replication in HepAD38 cells; test: HBV DNA replication inhibition assay in HepAD38 cells (7 days, PCR of supernatant DNA); assay type: cell-based, hepatitis B virus; details: Hepatitis B virus
Procedure: HepAD38 cells were seeded at 50,000 cells/well in collagen-coated 96-well plates. […] The experiment lasted 7 days. On day 7, total DNA was purified from the supernatant using a commercially available kit (DNeasy 96 Blood & Tissue kit, Qiagen). The HBV DNA was amplified in a polymerase chain reaction assay using LightCycler 480 II (Roche), as previously described.[63] All samples were tested in duplicate.

[6] = tested on: T lymphoblast CEM-CCRF (CEM) cells; test: MTT cytotoxicity, CEM cells; assay type: cell-based, human; details: 100 µM
Procedure: as §1

[7] = tested on: human peripheral blood mononuclear (PBM) cells; test: MTT cytotoxicity, PBM cells; assay type: cell-based; details: 100 µM
Procedure: as §1

[8] = tested on: African green monkey kidney (Vero) cells; test: MTT cytotoxicity, Vero cells; assay type: cell-based; details: Vero cells, 100 µM
Procedure: as §1

[9] = tested on: human liver carcinoma (HepG2) cells; test: MTT cytotoxicity, HepG2 cells; assay type: cell-based; details: HepG2 cells, 100 µM
Procedure: as §1

[10] = MTS cytotoxicity (Table S4)
[11] = HepAD38 cells, 10 μM, trial 1, read-out: % HBV DNA Inh. at 10 μM, trial 1
[12] = HepAD38 cells, 10 μM, trial 2, read-out: % HBV DNA Inh. at 10 μM, trial 2
[13] = HepAD38 cells, 10 µM, trial 3, read-out: % HBV DNA Inh. at 10 µM, trial 3
[14] = HepAD38 cells, 10 µM, trial 4, read-out: % HBV DNA Inh. at 10 µM, trial 4
[15] = HepAD38 cells, 10 μM, read-out: % inhibition in at least one of the trials
[16] = HepAD38 cells, trial 1, read-out: EC50, trial 1
[17] = HepAD38 cells, trial 2, read-out: EC50, trial 2
[18] = HepAD38 cells, trial 3, read-out: EC50, trial 3
[19] = HepAD38 cells, trial 4, read-out: EC50, trial 4

T1 sequence (P03147 1-149): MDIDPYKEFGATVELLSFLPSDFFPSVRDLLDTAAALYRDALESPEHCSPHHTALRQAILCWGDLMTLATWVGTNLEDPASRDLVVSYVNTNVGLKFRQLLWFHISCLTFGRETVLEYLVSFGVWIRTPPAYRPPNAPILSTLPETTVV
T2 sequence (P03147 1-149): as above

| SMILES | CC50 [1] [µM] | CC50 [2] [µM] | CC50 [3] [µM] | CC50 [4] [µM] | tryptophan fluorescence quenching (Cp149) | % abnormal capsids, Trial 1 (Cp149 capsid assembly) [%] | % abnormal capsids, Trial 2 (Cp149 capsid assembly) [%] | inhibition at 10 µM [5, 11] [%] | inhibition at 10 µM [5, 12] [%] | inhibition at 10 µM [5, 13] [%] | inhibition at 10 µM [5, 14] [%] | inhibition at 10 µM [5, 15] [%] | EC50 [5, 16] [µM] | EC50 [5, 17] [µM] | EC50 [5, 18] [µM] | EC50 [5, 19] [µM] | % cytotoxicity at 100 µM (MTT), CEM cells [6] [%] | percent cytotoxicity (cell growth inhibition) at 100 µM [7] [%] | effect on capsid morphology (TEM) (Cp149 capsid assembly) | % abnormal capsids, Average (Cp149 capsid assembly) [%] | also measured |
| --- | --- | --- | --- | --- | --- | --- | --- | --- | --- | --- | --- | --- | --- | --- | --- | --- | --- | --- | --- | --- | --- |
| O=C(OCc1ccc(-c2cnc3ccccc3n2)cc1)c1cccs1 [GT-32] | 52 | 44 | 59 | 85 | moderate fluorescence quenching | 76 | 85 | 48 | < 1 | < 1 | < 1 | > 50 | ≥ 10 | > 10 | > 10 | > 100 | – | – | – | – | Kd (Cp149; 20 μM Cp149, single-site fit, read-out: dissociation constant (KD), estimated): 124 µM; Kd (Cp149; one site specific binding model, Table S7, read-out: KD): 124 µM |
| CCOC(=O)c1cc(-c2cc(C(=O)OCC)c3ccccc3n2)nc2ccccc12 [GT-33] | > 100 | 76 | 86 | > 100 | reproducible but modest fluorescence quenching | 31 | 26 | 60 | 37 | < 1 | < 1 | > 50 | < 10 | > 10 | > 10 | > 100 | 32 | 5.6 | induced misdirected products | 29 | – |
| Cc1nc(-c2c(-c3ccccc3)ncn2Cc2cccc3[nH]ccc23)c[nH]1 [GT-40] | 77 | > 100 | > 100 | > 100 | No fluorescence quenching was observed | 8 | 11 | 55 | 50 | < 1 | < 1 | > 50 | < 10 | 10 | > 10 | > 100 | – | 19 | no apparent effect | 10 | % cytotoxicity (MTT) at 100 µM [8]: 39%; percent cytotoxicity (MTT) at 100 µM, HepG2 [9]: 30%; KD (Cp149; one site specific binding model, Table S7): No binding |
| NCCCC(=O)NCc1nc(-c2cccc(F)c2)c(-c2ccccn2)[nH]1 [GT-45] | > 100 | 66 | > 100 | > 100 | reproducible but modest fluorescence quenching | 40 | 35 | 50 | 49 | < 1 | < 1 | > 50 | ≥ 10 | ≥ 10 | > 10 | > 100 | 36 | 41 | induced misdirected products | 38 | percent cytotoxicity (MTT) at 100 µM, HepG2 [9]: 41% |
| O=C(NCc1ccc(-c2cccnc2)nc1)c1ccc2nccnc2c1 [GT-46] | 38 | 53 | 82 | > 100 | moderate fluorescence quenching | – | 78 | 49 | 49 | 2 | 39 | > 50 | ≥ 10 | ≥ 10 | > 10 | > 100 | – | 20 | – | 74 | Kd (Cp149; KD, one site specific binding model, Table S7): 263 µM; Kd (Cp149; dissociation constant (KD), estimated, 20 μM Cp149, single-site fit): 263 µM; IC50 (in vitro): > 200 µM; MTS cytotoxicity, % Inh. at 200 µM [10]: < 1%; inhibition at 200 µM ([5]; HePAD38, 200 µM, additional testing, Table S4, read-out: Anti-HBV activity in HepAD38 cells, % Inh. at 200 µM ± SD): 25.6 ± 2.5%; EC50 ([5]; HePAD38, additional testing, Table S4, read-out: Anti-HBV activity in HepAD38 cells, EC50): > 200 µM |
